Where two headings read alike, the source gives them in different places.
How the values were obtained:
[1] = Kokai Sho 60-132928, Table 2; cited from earlier work
[2] = tested on: contraction of the respiratory tract due to PAF; experiment: Activity to contraction of the respiratory tract of guinea pig due to PAF; type: in vivo, guinea pig (Hartley); conditions: Cavia porcellus, read-out: Activity to Contraction of the Respiratory Tract of Guinea Pig due to PAF ED50
Description: Hartley male guinea pigs weighing from 350 g to 500 g were anesthetized by intraperitoneal administration of 50 mg/kg of sodium pentobarbital. Contraction of the respiratory tract was measured by inserting a cannula into trachea and measuring under artificial ventilation according to Conzet et al, Arch. […] 71. Test compound was orally administered 1 hour prior to intravenous administration of 0.3 μg/kg of PAF.

[3] = tested on: mouse death due to shock induced by PAF; experiment: Activity to mouse death due to shock induced by PAF; type: in vivo; conditions: male ICR mouse; oral 1 hour prior to i.v. 100 μg/kg PAF; survival at 24 hours
Description: Test was effected according to Young et al. method, Prostaglandins, Vol. 30, p.545, 1985. Lethal test was effected by treating starved male ICR mouse weighing from 25 g to 30 g with PAF without anesthesia. Test Compound was orally administered 1 hour prior to tail intravenous administration of 100 μg/kg of PAF. Survival rate of the test animal was examined 24 hours after intravenous administration of PAF.

[4] = tested on: Rabbit platelet aggregation induced by PAF; experiment: Rabbit platelet aggregation inhibitory activity (PAF-induced); type: cell-based, rabbit (New Zealand white); conditions: Oryctolagus cuniculus, read-out: Rabbit Platelet Aggregation Inhibitory activity IC50
Description: To 0.9 volume of blood collected from jugular vein of a New Zealand white male rabbit weighing from 2.5 to 3.5 kg was added 0.1 volume of 3.8% aqueous sodium citrate, and the mixture was centrifuged at 110 xg for 15 minutes to give PRP ([…]). Assay of platelet aggregation induced by PAF was effected using 4 channels aggregometer (Manufacturer: Nicoh Bioscience Co.) according to Bohn et al, Turbidimetry [J. Physiology, Vol. 168, p.178, 1963]. […] The final concentration of PAF in the reaction mixture was adjusted to 10^-10 M.

Acute toxicity = conditions: in vivo; male and female SD (CD) rat; oral, 0.5% aqueous CMC-Na suspension; observed 14 days
[5] = tested on: thromboxane synthetase enzyme; conditions: Kokai Sho 63-316778, Table 1; cited from earlier work
[6] = Hartley male guinea pig, oral 1 hour prior to i.v. 0.3 μg/kg PAF
[7] = rabbit PRP, PAF final concentration 10^-10 M

Row | SMILES | ED50 [3] | IC50 [4, 7] | also measured
1 | CN1C(=O)c2ccc(Oc3ccc(C(F)(F)F)cc3Cl)cc2C1=O | – | – | herbicidal activity [1]: shows herbicidal activity
2 | Cc1nnc2n1-c1sc(CCC(=O)N3CCOCC3)cc1C(c1ccccc1Cl)=NC2 [WEB2086, reference compound] | 1 mg/kg | – | ED50 ([2]; po, 1 h): 0.15 mg/kg; IC50 [4]: 40 nM
3 | O=c1c2cc(Oc3ccc(Cl)cc3)ccc2nnn1Cc1cccnc1 [compound 2, 6-(4-chlorophenoxy)-3-(3-pyridylmethyl)-1,2,3-benzotriazin-4 (3H)-one] | 2.1 mg/kg | 26 nM | ED50 [2, 6]: 0.15 mg/kg; LD50 at 336 h (Acute toxicity): > 2000 mg/kg
4 | O=C1c2ccc(Oc3ccc(Cl)cc3)cc2C(=O)N1Cc1cccnc1 [compound 25, 5-(4-chlorophenoxy)-2-(3-pyridylmethyl)-1H-isoindole-1,3 (2H)-dione] | 1.3 mg/kg | 10 nM | ED50 [2, 6]: 0.14 mg/kg; LD50 at 336 h (Acute toxicity): > 2000 mg/kg
5 | O=C(c1ccc(Cl)cc1)c1ccc2c(c1)C(=O)N(Cc1cccnc1)C2=O [compound 45, 5-(4-chlorobenzoyl)-2-(3-pyridylmethyl)-1H-isoindole-1,3 (2H)-dione] | 0.6 mg/kg | 19 nM | –
6 | O=C1c2ccc(-c3cccc4ccccc34)cc2C(=O)N1Cc1cccnc1 [compound 50, 5-(1-naphthyl)-2-(3-pyridylmethyl)-1H-isoindole-1,3 (2H)-dione] | 0.32 mg/kg | 24 nM | –
7 | O=C1c2ccc(N(c3ccc(Cl)cc3)c3ccc(Cl)cc3)cc2C(=O)N1Cc1cccnc1 [compound 60, 5-[N,N-bis (4-chlorophenyl)amino]-2-(3-pyridylmethyl)-1H-isoindole-1,3(2H)-dione] | 0.019 mg/kg | 2.6 nM | ED50 [2, 6]: 0.019 mg/kg; LD50 at 336 h (Acute toxicity): > 2000 mg/kg
8 | N#Cc1ccc(N(c2ccc(C#N)cc2)c2ccc3c(c2)C(=O)N(Cc2cccnc2)C3=O)cc1 [compound 63, 5-[N,N-bis (4-cyanophenyl)amino]-2-(3-pyridylmethyl)-1H-isoindole-1,3 (2H)-dione] | 0.007 mg/kg | 1.7 nM | ED50 [2, 6]: 0.006 mg/kg; LD50 at 336 h (Acute toxicity): > 2000 mg/kg
9 | O=C1c2ccc(C(c3ccc(Cl)cc3)c3ccc(Cl)cc3)cc2C(=O)N1Cc1cccnc1 [compound 68, 5-[bis (4-chlorophenyl)methyl]-2-(3-pyridylmethyl)-1H-isoindole-1,3 (2H)-dione] | – | 1.8 nM | –
10 | O=C1c2cccc(Oc3ccc(Cl)cc3)c2C(=O)N1Cc1cccnc1 [compound 72, 4-(4-chlorophenoxy)-2-(3-pyridylmethyl)-1H-isoindole-1,3 (2H)-dione] | 0.4 mg/kg | 32 nM | –
11 | O=C1c2cc(Oc3ccc(Cl)cc3)ccc2CCN1Cc1cccnc1 [compound 84, 7-(4-chlorophenoxy)-3,4-dihydro-2-(3-pyridylmethyl)-1 (2H)-isoquinolinone] | – | 10 nM | –
12 | O=C1c2cc(Oc3ccc(F)cc3)ccc2CN1Cc1cccnc1 [compound 125, 2,3-dihydro-6-(4-fluorophenoxy)-2-(3-pyridylmethyl)-1H-isoindole-1-one] | – | 36 nM | –
13 | O=c1c2cc(Oc3ccc(Cl)cc3)ccc2ccn1Cc1cccnc1 [compound 128, 7-(4-chlorophenoxy)-2-(3-pyridylmethyl)-1 (2H)-isoquinolinone] | – | 18 nM | –
14 | O=c1c2cc(Oc3ccc(Cl)cc3)ccc2ccn1-c1cccnc1 [compound 130, 7-(4-chlorophenoxy)-2-(3-pyridyl)-1 (2H)-isoquinolinone] | 0.018 mg/kg | – | –
15 | O=c1c2cc(Oc3ccc(Cl)cc3)ccc2ncn1Cc1cccnc1 [compound 131, 6-(4-chlorophenoxy)-3-(3-pyridylmethyl)-4 (3H)-quinazolinone] | – | 31 nM | –
16 | O=c1c2cc(Cl)ccc2nnn1CCCn1ccnc1 [formula (A)] | – | – | thromboxane synthetase enzyme inhibition [5]: inhibits thromboxane synthetase enzyme
